Values quoted from earlier work in patent US20080161385A1, “Composition Inhibiting Sex Hormone-Binding Globulin” (FUJI OIL COMPANY, LIMITED, priority 2004, published 2008).

System: SHBG
Conditions: cell test, literature

O=c1c(-c2ccc(O)cc2)coc2cc(O)cc(O)c12 [genistein]
Production of SHBG: stimulates production of SHBG
